# Reference: patent US10519125B2, “Flavagline derivatives” (PIERRE FABRE MEDICAMENT, priority 2014, dated 2019)
# Where two headings read alike, the source gives them in different places.
# Columns and labels:
# [1] = tested on: MDA-MB-231 human tumor xenograft; test: Antitumor activity, subcutaneous MDA-MB-231 breast cancer xenografts in SCID mice; assay type: in vivo; conditions: for Activity: q1d5 × 3, MDA-MB-231; for Deaths (%): q1d5 × 3, SCID mice
# Protocol: Subcutaneous xenografts were established with MDA-MD-231 breast cancer cells (ATCC: HTB-26) in SCID mice (Harlan, U.K.). The animals were treated and cared after in accordance with the Guide For the Care and Use of Laboratory Animals (National Research Council, 1996) and with European Directive 86/609/EEC, under the supervision of a staff expert authorized to conduct experimental studies with laboratory animals.
# All the experiments were conducted pursuant to French and local regulations (Department of Veterinary Services, Haute-Garonne, Toulouse) according to the directives of an ethics committee, based on the UKCCCR Guidelines for the Welfare of Animals in Experimental Neoplasia, as indicated above. The implantation of MDA-MB-231 human tumor fragments is carried subcutaneously in the flanks of SCID mice using a trocar and, for the study of tumor growth, the tumors are allowed to reach a median volume of 70-130 mm^3 before starting the studies.
# After randomization in the treatment cages, the inhibitors were administered intravenously according to a g1d5×3 treatment scheme (5 injections per week for 3 weeks). The mice were monitored and weighed daily. The tumors were measured with a slide caliper and the tumor volumes (mm^3) were estimated using the following formula: volume=0.5 (length×width^2). Each experimental group consists of 5 individuals. The efficacy of the treatment was evaluated by analysis of the measurement of the median volume of the treated tumors compared with the median volume of the tumors receiving only carrier (control). The T/C evaluation criterion corresponds to: [(median volume of the treated group, T/median volume of the control group, C)×100]. This T/C ratio is expressed as a percentage. The optimal T/C value corresponds to the ratio which reflects the maximum inhibition of growth obtained during the study. The maximum gains or losses of weight, expressed as a percentage of the initial weight of the animals, as well as the percentage of drug-related deaths (i.e., the percentage of treated animals that died before the assessment) were used to provide an evaluation of the toxicity of the compounds. In accordance with the NCI (National Cancer Institute) criterion, a dose is deemed toxic if it induces weight loss greater than −20% relative to the initial weight of the mouse or if it induces more than 20% deaths (Corbett et al. J Exp Ther Oncol 1996, 1:95-108).
# [2] = tested on: HCT116 line (human colon cancer cell line); test: Antiproliferative (cytotoxic) activity on HCT116 line, ATPLite cell viability, 72 hours; assay type: cell-based; conditions: read-out: HCT116 (EC50)
# Protocol: 2.1. Antiproliferative Activity of the Compounds According to the Invention (IC50 in M)
# Culture of Lines and Measurement of Cell Viability:
# The HCT116 line (ATCC, CCL-247) derived from colon cancer was cultured in MEM (Minimum Essential Medium Eagle) supplemented with 2 mM L-glutamine (Sigma, G7513), 5% fetal calf serum (Sigma, F7524) and antibiotics (Sigma, A59-55). The protocol for determining cytotoxic activity consists in seeding cells on 96-well plates (Perkin Elmer, 6005668) at a density of 1500 cells per well. After 24 hours of incubation, the test compound is applied in each well, using serial dilutions in the solvent dimethylsulfoxide (DMSO) (Sigma, D8418), from 10 mM stock solutions in 100% DMSO. Each dilution was added to the cells 24 hours after seeding. Under these conditions, the final solvent concentration is 0.1% DMSO. A reading of cell proliferation was carried out 72 hours after addition of the products with the ATPLite™ kit (Perkin Elmer, 6016947) and according to the manufacturer's recommendations. The analysis of the proliferation results was carried out by comparison with conditions where only the carrier solvent (culture medium, 0.1% DMSO) was added to the cells. The dose-response curves obtained were analyzed using the PRISM 4.03 software (GraphPad Software Inc.), or by an equivalent analytical method, to determine the concentration of each compound which inhibits 50% of cell proliferation (EC50).
# By way of example, the cytotoxic properties of several compounds of the invention evaluated on the HCT116 line (human colon cancer cell line) are reported in Table 1.
# [3] = Mus musculus, MDA-MB-231, iv, read-out: Opt. T/C (%)
# [4] = HCT-116, HCT116, 72 hours after addition, ATPLite
smiles,measurement,setting,value
"COc1ccc([C@@]23Oc4cc(OC)cc(OC)c4[C@]2(O)[C@H](O)[C@H](c2nnc(N)o2)[C@H]3c2ccccc2)cc1 [Compound 19, (1R,2R,3S,3aR,8bS)-2-(5-amino-1,3,4-oxadiazol-2-yl)-6,8-dimethoxy-3a-(4-methoxyphenyl)-3-phenyl-2,3,3a,8b-tetrahydro-1H-cyclopenta[b]benzofuran-1,8b-diol]",Activity,[1]; 1.3 mg/kg intravenously,Active
same,Deaths (%),[1]; 1.3 mg/kg intravenously,0%
same,response vs control in vivo at 1.3 mg/kg,[1]; [3],26%
"COc1ccc([C@@]23Oc4cc(OCCN5CCN(C)CC5)cc(OC)c4[C@]2(O)[C@H](O)[C@H](c2nnc(N)o2)[C@H]3c2ccccc2)cc1 (racemic) [Compound 22, rac-(1R,2R,3S,3aR,8bS)-2-(5-amino-1,3,4-oxadiazol-2-yl)-8-methoxy-3a-(4-methoxyphenyl)-6-(2-(4-methylpiperazin-1-yl)ethoxy)-3-phenyl-2,3,3a,8b-tetrahydro-1H-cyclopenta[b]benzofuran-1,8b-diol]",Activity,[1]; 1.4 mg/kg intravenously,Active
same,Deaths (%),[1]; 1.4 mg/kg intravenously,0%
same,response vs control in vivo at 1.4 mg/kg,[1]; [3],21%
"COC(=O)[C@H]1[C@@H](O)[C@@]2(O)c3c(OC)cc(OCCCCN(C)C)cc3O[C@@]2(c2ccc(OC)cc2)[C@@H]1c1ccccc1 (racemic) [Compound 52, rac-methyl (1R,2R,3S,3aR,8bS)-6-(4-(dimethylamino)butoxy)-1,8b-dihydroxy-8-methoxy-3a-(4-methoxyphenyl)-3-phenyl-2,3,3a,8b-tetrahydro-1H-cyclopenta[b]benzofuran-2-carboxylate]",EC50,[2]; [4],4.9 nM
"CNc1nnc([C@H]2[C@@H](O)[C@@]3(O)c4c(OC)cc(OC)cc4O[C@@]3(c3ccc(OC)cc3)[C@@H]2c2ccccc2)o1 (racemic) [Compound 24, rac-(1R,2R,3S,3aR,8bS)-6,8-dimethoxy-3a-(4-methoxyphenyl)-2-(5-(methylamino)-1,3,4-oxadiazol-2-yl)-3-phenyl-2,3,3a,8b-tetrahydro-1H-cyclopenta[b]benzofuran-1,8b-diol]",Activity,[1]; 2.8 mg/kg intravenously,Active
same,Deaths (%),[1]; 2.8 mg/kg intravenously,0%
same,response vs control in vivo at 2.8 mg/kg,[1]; [3],25%
"COc1ccc([C@@]23Oc4cc(OCCN(C)C)cc(OC)c4[C@]2(O)[C@H](O)[C@H](c2nnc(N)o2)[C@H]3c2ccccc2)cc1 (racemic) [Compound 21, rac-(1R,2R,3S,3aR,8bS)-2-(5-amino-1,3,4-oxadiazol-2-yl)-6-(2-(dimethylamino)ethoxy)-8-methoxy-3a-(4-methoxyphenyl)-3-phenyl-2,3,3a,8b-tetrahydro-1H-cyclopenta[b]benzofuran-1,8b-diol]",Activity,[1]; 1 mg/kg intravenously,Active
same,Deaths (%),[1]; 1 mg/kg intravenously,0%
same,response vs control in vivo at 1 mg/kg,[1]; [3],22%
"COc1ccc([C@@]23Oc4cc(OCCCC(O)CO)cc(OC)c4[C@]2(O)[C@@H]2OC(=O)N[C@@H]2[C@H]3c2ccccc2)cc1 (mixture of isomers) [Compound 41, rac-(3aR,4R,4aR,9bS,9cR)-7-((4,5-dihydroxypentyl)oxy)-9b-hydroxy-9-methoxy-4a-(4-methoxyphenyl)-4-phenyl-3,3a,4,4a,9b,9c-hexahydro-2H-benzofuro[3′,2′:3,4]cyclopenta[1,2-d]oxazol-2-one]",EC50,[2]; [4],4.2 nM
"COc1ccc([C@@]23Oc4cc(OC)cc(OC)c4[C@]2(O)[C@@H]2OC(N)=N[C@@H]2[C@H]3c2ccccc2)cc1 (racemic) [Compound 47, rac-(3aR,4R,4aR,9bS,9cR)-2-amino-7,9-dimethoxy-4a-(4-methoxyphenyl)-4-phenyl-4,4a,9b,9c-tetrahydro-3aH-benzofuro[3′,2′:3,4]cyclopenta[1,2-d]oxazol-9b-ol]",EC50,[2]; [4],1.1 nM
"COc1ccc([C@@]23Oc4cc(OC)cc(OC)c4[C@]2(O)[C@@H]2OC(=O)N[C@@H]2[C@H]3c2ccccc2)cc1 (racemic) [Compound 40, rac-(3aR,4R,4aR,9bS,9cR)-9b-hydroxy-7,9-dimethoxy-4a-(4-methoxyphenyl)-4-phenyl-3,3a,4,4a,9b,9c-hexahydro-2H-benzofuro[3′,2′:3,4]cyclopenta[1,2-d]oxazol-2-one]",EC50,[2]; [4],2.52 nM
"COC(=O)[C@H]1[C@@H](O)[C@@]2(O)c3c(OC)cc(OCCCCN)cc3O[C@@]2(c2ccc(OC)cc2)[C@@H]1c1ccccc1 (racemic) [Compound 8, rac-(1R,2R,3S,3aR,8bS)-methyl 6-(4-aminobutoxy)-1,8b-dihydroxy-8-methoxy-3a-(4-methoxyphenyl)-3-phenyl-2,3,3a,8b-tetrahydro-1H-cyclopenta[b]benzofuran-2-carboxylate]",EC50,"[2]; HCT-116, 72 h",2.61 nM
"COc1ccc([C@@]23Oc4cc(OCCCCO)cc(OC)c4[C@]2(O)[C@@H]2OC(=O)N[C@@H]2[C@H]3c2ccccc2)cc1 (racemic) [Compound 42, rac-(3aR,4R,4aR,9bS,9cR)-9b-hydroxy-7-(4-hydroxybutoxy)-9-methoxy-4a-(4-methoxyphenyl)-4-phenyl-3,3a,4,4a,9b,9c-hexahydro-2H-benzofuro[3′,2′:3,4]cyclopenta[1,2-d]oxazol-2-one]",EC50,[2]; [4],2.16 nM
"COc1ccc([C@@]23Oc4cc(OC)cc(OC)c4[C@]2(O)[C@H](O)[C@H](c2nnc(C)[nH]2)[C@H]3c2ccccc2)cc1 (racemic) [Compound 30, rac-(1R,2S,3S,3aR,8bS)-6,8-dimethoxy-3a-(4-methoxyphenyl)-2-(5-methyl-4H-1,2,4-triazol-3-yl)-3-phenyl-2,3,3a,8b-tetrahydro-1H-cyclopenta[b]benzofuran-1,8b-diol]",Activity,[1]; 0.7 mg/kg intravenously,Active
same,Deaths (%),[1]; 0.7 mg/kg intravenously,0%
same,response vs control in vivo at 0.7 mg/kg,[1]; [3],15%
"CN[C@H]1[C@@H](O)[C@@]2(O)c3c(OC)cc(OC)cc3O[C@@]2(c2ccc(OC)cc2)[C@@H]1c1ccccc1 (racemic) [Compound 15, rac-(1R,2R,3R,3aR,8bS)-6,8-dimethoxy-3a-(4-methoxyphenyl)-2-(methylamino)-3-phenyl-1,2,3,3a-tetrahydro-8bH-cyclopenta[b]benzofuran-1,8b-diol]",EC50,[2]; [4],3.83 nM
"COC(=O)[C@H]1[C@@H](O)[C@@]2(O)c3c(OC)cc(OCCCCN)cc3O[C@@]2(c2ccc(OC)cc2)[C@@H]1c1ccccc1 [Compound 50, methyl (1R,2R,3S,3aR,8bS)-6-(4-aminobutoxy)-1,8b-dihydroxy-8-methoxy-3a-(4-methoxyphenyl)-3-phenyl-2,3,3a,8b-tetrahydro-1H-cyclopenta[b]benzofuran-2-carboxylate]",EC50,"[2]; HCT-116, 72 h",1.22 nM
"COc1ccc([C@@]23Oc4cc(OC)cc(OC)c4[C@]2(O)[C@H](O)[C@H](c2nnc(N)o2)[C@H]3c2ccccc2)cc1 (racemic) [Compound 18, rac-(1R,2R,3S,3aR,8bS)-2-(5-amino-1,3,4-oxadiazol-2-yl)-6,8-dimethoxy-3a-(4-methoxyphenyl)-3-phenyl-2,3,3a,8b-tetrahydro-1H-cyclopenta[b]benzofuran-1,8b-diol]",Activity,[1]; 2.5 mg/kg intravenously,Active
same,Deaths (%),[1]; 2.5 mg/kg intravenously,0%
same,Activity,[1]; 3.5 mg/kg intravenously,Active
same,Deaths (%),[1]; 3.5 mg/kg intravenously,0%
same,response vs control in vivo at 2.5 mg/kg,[1]; [3],40%
same,response vs control in vivo at 3.5 mg/kg,[1]; [3],6%
